Laboratory results from patent US20260315434A1, “USE OF GUAIACOL SESQUITERPENE LACTONE DERIVATIVES” (NANJING UNIVERSITY OF CHINESE MEDICINE, priority 2023, published 2026).
Read-outs that look alike come from different tables or passages of the source.

How the values were obtained:
[1] = test system: T cells / MDSCs; test: Promotion of T cell proliferation in a co-culture model of MDSCs and T cells; assay type: cell-based, mouse
Outline: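 Bone-marrow MDSCs, after compound treatment, were co-cultured 48 h at 1:1 with CFDA-SE-labelled (10 μM solution), activated splenic T cells. Proliferation of CD3+ T cells was read by flow cytometry.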

[2] = test system: inflammatory cytokines (TNF, IL-6, IL-1) in renal tissue; test: Folic acid-induced acute kidney injury, renal inflammatory factor mRNA; assay type: in vivo, C57BL/6 mice; conditions: folic acid acute model
Experimental: (§1) Except for the normal group, all other mice were administered folic acid (250 mg/kg) dissolved in 0.9% NaHCO3 solution via intraperitoneal injection to establish an acute kidney injury model.
(§2) The blood was allowed to stand at room temperature for 2 hours, then centrifuged at 3000 rpm for 20 minutes. Serum was aspirated, aliquoted, and stored at −70° C. for future use. Following blood collection, euthanize mice by cervical dislocation. Perform laparotomy to remove kidneys, dissect out perirenal fat and capsules. […] Paraffin-embedded specimens undergo HE staining; remaining tissue is stored at −70° C. for future use.

[3] = test system: fibrosis-related factors (α-Sma, Col1a1, Tgfb1) in kidney tissue; test: Folic acid-induced kidney injury, renal fibrosis-related factor mRNA; assay type: in vivo, C57BL/6 mice; conditions: folic acid model
Experimental: as §1, §2

[4] = test system: fibrosis-related factors (α-Sma, Col1a1, Tgfb1) in kidney tissue; test: UUO chronic kidney injury, renal fibrosis-related factor mRNA; assay type: in vivo, C57BL/6 mice; set-up: unit not given here; conditions: UUO chronic model
From the text: Chronic Kidney Injury: Mice were randomly divided into five groups. […] Except for the sham-operated mice in the normal group (where only the left ureter was exposed without further manipulation), all other mice underwent unilateral ureteral ligation to establish a chronic kidney injury model as follows: The abdominal skin was disinfected with iodine solution followed by alcohol. An incision was made, and the abdominal layers were dissected sequentially. The left ureter was fully exposed and dissected. A double ligation was performed at the bladder-proximal end of the left ureter using absorbable suture material, followed by closure.
as §2

[5] = Conversion (release) of prodrug salts to parent compound in HEPES buffer pH 7.4; assay type: in vitro ADME; conditions: for Release rate (conversion to Compound 1): HEPES pH 7.4, 37 °C; for degraded at 1 h / degraded at 2 h / degraded at 4 h / degraded at 8 h / degraded at 12 h: hepes buffer, pH 7.4, HEPES pH 7.4, 37 °C
Outline: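 Salt dissolved in water, mixed 1:1 with HEPES solution pH 7.4 (NaCl, KCl, Na2HPO4, glucose) and held at 37° C. At 1, 2, 4, 8 and 12 h, samples were methanol-quenched, centrifuged and analysed by reversed-phase HPLC at 210 nm, with peak areas recorded for conversion to parent compound.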

[6] = Conversion (release) of prodrug salts to parent compound in mouse plasma; assay type: in vitro ADME; conditions: 37 °C; for metabolised at 1 h / metabolised at 2 h / metabolised at 4 h / metabolised at 8 h / metabolised at 12 h: mouse, plasma
Outline: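 Salts (0.6 mg in 250 μL water) were mixed 1:1 with heparinized mouse plasma or HEPES pH 7.4 and incubated at 37 °C. Samples were methanol-quenched and taken at 1–12 h. Parent compound was quantified by C18 HPLC-UV at 210 nm using peak areas.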

[7] = test system: renal injury markers (Ngal, Havcr1) in kidney tissue; test: Folic acid-induced acute kidney injury, renal injury marker mRNA; assay type: in vivo, C57BL/6 mice; set-up: scale not given here; conditions: folic acid acute model
Experimental: as §1, §2

[8] = test system: 4T1 cells; test: Antitumor effect in 4T1 mouse mammary carcinoma xenograft model; assay type: in vivo, BALB/c mice; conditions: oral, 3 weeks; for antitumor effect, 4T1: result in words
Experimental: 4T1 cells were cultured and expanded in vitro. […] A 100 μL aliquot of this suspension was injected subcutaneously into the left forelimb axilla of female BALB/c mice. […] Daily oral administration was performed for 3 weeks. During the treatment period, mouse body weight and tumor diameter were measured daily. At the end of the experiment, mice were euthanized by cervical dislocation, and tumors were removed for weighing. Tumor volume (TV) was calculated using the formula: TV=½×a×b^2, where a represents the longest diameter of the tumor and b represents the shortest diameter.

[9] = 1 h, read-out: Release rate (conversion to Compound 83)
[10] = 2 h, read-out: Release rate (conversion to Compound 83)
[11] = 4 h, read-out: Release rate (conversion to Compound 83)
[12] = 8 h, read-out: Release rate (conversion to Compound 83)
[13] = 12 h, read-out: Release rate (conversion to Compound 83)
[14] = 1 h, read-out: Release rate (conversion to Compound 82)
[15] = 2 h, read-out: Release rate (conversion to Compound 82)
[16] = 4 h, read-out: Release rate (conversion to Compound 82)
[17] = 8 h, read-out: Release rate (conversion to Compound 82)
[18] = 12 h, read-out: Release rate (conversion to Compound 82)

In the case of CN(C)C[C@@H]1C(=O)O[C@H]2[C@H]1CC[C@@]1(C)C[C@]13CC[C@@](C)(O)[C@H]23 [Compound 21], the “T-cell proliferation rate (%)” value ([1]; 1 μM, MDSCs treated 12 hours, co-culture of MDSCs and T cells, compared to the control group) is reported as “+ (T-cell proliferation rate within the 0-20% range compared to the control group)”, the “Il1 mRNA expression, kidney” value ([2]; 0.1 mg/kg oral) is reported as 2.07 ± 0.38 and the “Il6 mRNA expression, kidney” value ([2]; 0.1 mg/kg oral) is reported as 6.47 ± 0.53. The “Tnf mRNA expression, kidney” value ([2]; 0.1 mg/kg oral) was 2.60 ± 0.62, the “Il1 mRNA expression, kidney” value ([2]; 1 mg/kg oral, 1 mg/kg) was 1.45 ± 0.23 and the “Il6 mRNA expression, kidney” value ([2]; 1 mg/kg oral, 1 mg/kg) was 5.61 ± 2.10. The “Tnf mRNA expression, kidney” value ([2]; 1 mg/kg oral, 1 mg/kg) was 2.42 ± 0.35, the “Col1a1 mRNA expression, kidney” value ([3]; 0.1 mg/kg oral) was 1.58 ± 0.35 and the “Tgfb1 mRNA expression, kidney” value ([3]; 0.1 mg/kg oral) was 1.64 ± 0.16. For the same compound, the “α-Sma mRNA expression, kidney” value ([3]; 0.1 mg/kg oral) was 1.80 ± 0.42, the “Col1a1 mRNA expression, kidney” value ([3]; 1 mg/kg oral, 1 mg/kg) was 1.20 ± 0.19 and the “Tgfb1 mRNA expression, kidney” value ([3]; 1 mg/kg oral, 1 mg/kg) was 1.09 ± 0.15. For the same compound, the “α-Sma mRNA expression, kidney” value ([3]; 1 mg/kg oral, 1 mg/kg) was 0.90 ± 0.21, the “Col1a1 mRNA expression, kidney” value ([4]; 0.1 mg/kg oral) was 11.79 ± 1.18 and the “Tgfb1 mRNA expression, kidney” value ([4]; 0.1 mg/kg oral) was 1.76 ± 0.05. The “α-Sma mRNA expression, kidney” value ([4]; 0.1 mg/kg oral) was 2.02 ± 0.39, the “Col1a1 mRNA expression, kidney” value ([4]; 1 mg/kg oral, 1 mg/kg) was 8.27 ± 1.15 and the “Tgfb1 mRNA expression, kidney” value ([4]; 1 mg/kg oral, 1 mg/kg) was 1.53 ± 0.14. For the same compound, the “α-Sma mRNA expression, kidney” value ([4]; 1 mg/kg oral, 1 mg/kg) was 1.39 ± 0.04, the “Release rate (conversion to Compound 1)” value ([5]; 1 h, 60 min) was 3.3% and the “Release rate (conversion to Compound 1)” value ([5]; 2 h, 120 min) was 10.2%. The “Release rate (conversion to Compound 1)” value ([5]; 4 h, 240 min) was 18.1%, the “Release rate (conversion to Compound 1)” value ([5]; 8 h, 480 min) was 38.9% and the “Release rate (conversion to Compound 1)” value ([5]; 12 h, 720 min) was 51.9%. The “Release rate (conversion to Compound 1)” value ([6]; 1 h, 60 min) was 5.4%, the “Release rate (conversion to Compound 1)” value ([6]; 2 h, 120 min) was 10.7% and the “Release rate (conversion to Compound 1)” value ([6]; 4 h, 240 min) was 17.9%. For the same compound, the “Release rate (conversion to Compound 1)” value ([6]; 8 h, 480 min) was 39.3%, the “Release rate (conversion to Compound 1)” value ([6]; 12 h, 720 min) was 55.4% and the “Havcr1 mRNA expression, kidney” value ([7]; 0.1 mg/kg oral) was 170.08 ± 33.10. For the same compound, the “Ngal mRNA expression, kidney” value ([7]; 0.1 mg/kg oral) was 25.75 ± 2.80, the “Havcr1 mRNA expression, kidney” value ([7]; 1 mg/kg oral, 1 mg/kg) was 83.11 ± 16.85 and the “Ngal mRNA expression, kidney” value ([7]; 1 mg/kg oral, 1 mg/kg) was 13.08 ± 2.41.

With CC1=C2CC[C@@](C)(OC(=O)N3CCCCC3)[C@@H]2[C@H]2OC(=O)[C@@H](CN(C)C)[C@@H]2CC1 [Compound 102] the “Tumor inhibition rate (%)” value ([8]; 40 μmol/kg/day, 4T1) was −20.37%, the “Tumor weight” value ([8]; 40 μmol/kg/day, 4T1) was 2.18 ± 1.34 g and the “antitumor effect, 4T1” value [8] was “no significant antitumor effects”. For the same compound, the degraded at 1 h [5, 9] was 6.8%, the degraded at 2 h [5, 10] was 14.6% and the degraded at 4 h [5, 11] was 24.8%. The degraded at 8 h [5, 12] was 43%, the degraded at 12 h [5, 13] was 51.8% and the metabolised at 1 h [6, 9] was 6.6%. For the same compound, the metabolised at 2 h [6, 10] was 14%, the metabolised at 4 h [6, 11] was 26% and the metabolised at 8 h [6, 12] was 42.4%. It also gave a metabolised at 12 h [6, 13] of 47.8%.

For CC1=C2CC[C@@](C)(OC(=O)N3CCCC3)[C@@H]2[C@H]2OC(=O)[C@@H](CN3CCCC3)[C@@H]2CC1 [Compound 103], the activation at 1 µM ([1]; Mus musculus, T-cell, 12 h, read-out: T-cell proliferation rate (%), 1 μM, MDSCs treated 12 hours, co-culture of MDSCs and T cells, compared to the control group) was 20 to 40%, the “antitumor effect, 4T1” value [8] was “no significant antitumor effects” and the “Il1 mRNA expression, kidney” value ([2]; 0.1 mg/kg oral) was 2.83 ± 1.00. The “Il6 mRNA expression, kidney” value ([2]; 0.1 mg/kg oral) was 27.33 ± 11.81, the “Il1 mRNA expression, kidney” value ([2]; 1 mg/kg oral) was 2.79 ± 1.31 and the “Il6 mRNA expression, kidney” value ([2]; 1 mg/kg oral) was 23.47 ± 6.54. For the same compound, the “Il1 mRNA expression, kidney” value ([2]; 10 mg/kg oral) was 1.65 ± 1.00, the “Il6 mRNA expression, kidney” value ([2]; 10 mg/kg oral) was 17.94 ± 9.61 and the “Col1a1 mRNA expression, kidney” value ([3]; 0.1 mg/kg oral) was 2.45 ± 0.63. The “α-Sma mRNA expression, kidney” value ([3]; 0.1 mg/kg oral) was 3.50 ± 1.91, the “Col1a1 mRNA expression, kidney” value ([3]; 1 mg/kg oral) was 2.25 ± 0.58 and the “α-Sma mRNA expression, kidney” value ([3]; 1 mg/kg oral) was 3.03 ± 0.99. The “Col1a1 mRNA expression, kidney” value ([3]; 10 mg/kg oral) was 1.93 ± 0.41, the “α-Sma mRNA expression, kidney” value ([3]; 10 mg/kg oral) was 1.55 ± 0.61 and the “Col1a1 mRNA expression, kidney” value ([4]; 0.1 mg/kg oral) was 10.58 ± 2.78. For the same compound, the “α-Sma mRNA expression, kidney” value ([4]; 0.1 mg/kg oral) was 6.33 ± 0.96, the “Col1a1 mRNA expression, kidney” value ([4]; 1 mg/kg oral) was 11.02 ± 2.81 and the “α-Sma mRNA expression, kidney” value ([4]; 1 mg/kg oral) was 6.01 ± 1.21. The “Col1a1 mRNA expression, kidney” value ([4]; 10 mg/kg oral) was 9.31 ± 2.28, the “α-Sma mRNA expression, kidney” value ([4]; 10 mg/kg oral) was 4.86 ± 0.99 and the degraded at 1 h [5, 14] was 6.4%. It also gave a degraded at 2 h [5, 15] of 14.2%, a degraded at 4 h [5, 16] of 26% and a degraded at 8 h [5, 17] of 45.6%. The degraded at 12 h [5, 18] was 52.6%, the metabolised at 1 h [6, 14] was 7.2% and the metabolised at 2 h [6, 15] was 13.2%. The metabolised at 4 h [6, 16] was 26.8%, the metabolised at 8 h [6, 17] was 44.5% and the metabolised at 12 h [6, 18] was 53.4%. For the same compound, the “Havcr1 mRNA expression, kidney” value ([7]; 0.1 mg/kg oral) was 452.14 ± 212.69, the “Ngal mRNA expression, kidney” value ([7]; 0.1 mg/kg oral) was 148.49 ± 116.61 and the “Havcr1 mRNA expression, kidney” value ([7]; 1 mg/kg oral) was 415.10 ± 120.96. The “Ngal mRNA expression, kidney” value ([7]; 1 mg/kg oral) was 85.57 ± 27.78, the “Havcr1 mRNA expression, kidney” value ([7]; 10 mg/kg oral) was 331.69 ± 98.67 and the “Ngal mRNA expression, kidney” value ([7]; 10 mg/kg oral) was 69.68 ± 25.32.
